# Measurements from PubChem BioAssay (NCI).
#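 Following 48 hours of exposure in 96-well plates, responses at five concentrations were used to interpolate endpoints linearly. TGI is the concentration that stops growth completely.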
# Tests used:
# Experiment in all cases: growth of human tumour cells (NCI), 48 h
# [1] = test system: HCC-2998 colon
# [2] = test system: SK-OV-3 ovarian
# [3] = test system: SF-268 CNS
# [4] = test system: NCI-H23 lung
# [5] = test system: UACC-257 melanoma
# [6] = test system: HT29 colon
# [7] = test system: SK-MEL-5 melanoma
# [8] = test system: HL-60(TB) leukemia
# [9] = test system: MDA-MB-231 breast
# [10] = test system: SF-539 CNS
# [11] = test system: SF-295 CNS
# [12] = test system: MCF7 breast
# [13] = test system: EKVX NSCLC
# [14] = test system: K-562 leukemia
# [15] = test system: T-47D breast
# [16] = test system: OVCAR-8 ovarian
Structure (SMILES),TGI [1] [µM],TGI [2] [µM],TGI [3] [µM],TGI [4] [µM],TGI [5] [µM],TGI [6] [µM],TGI [7] [µM],TGI [8] [µM],TGI [9] [µM],TGI [10] [µM],TGI [11] [µM],TGI [12] [µM],TGI [13] [µM],TGI [14] [µM],TGI [15] [µM],TGI [16] [µM]
COC1/C=C/C(C)C(C(C)C(OC)C(C)CCC(=O)C(C)C(C/C=C/N(C)C=O)OC)OC(=O)C=CC2OC2(C)CC(OC)C(OC)C2=CC(=O)O[C@@H](C(C)C(OC)CC(OC)/C=C/C(C)C(O)C1)[C@H]2O (stereo partly drawn),0.0584,0.0667,0.0186,> 0.322,0.0492,0.0108,0.0284,0.0785,0.0197,0.00742,0.0236,> 0.286,0.0163,–,–,–
CC1=NNC(=O)C1C1CC(c2c[nH]c3ccccc23)=NNC1=O (stereo not drawn),–,> 100,> 100,> 100,> 100,> 100,> 100,> 100,> 100,> 100,> 100,–,> 100,> 100,> 100,> 100
C=C(Br)CNC(=O)Nc1ccc(Cl)c(Cl)c1,44.7,77,91.9,39.6,–,73.4,27.1,38.3,32.9,39,67.2,–,78.4,90.5,> 100,–
N#CC1C(=O)NC23CCCCC2C1c1ccccc1O3 (stereo not drawn),> 100,> 100,> 100,> 100,> 100,> 100,> 100,> 100,> 100,–,> 100,> 100,> 100,> 100,–,> 100
CC1(C)OC(=O)C(C#N)=C1/C=C/c1coc2ccc(Cl)cc2c1=O,> 100,69.7,> 100,52,> 100,–,53.5,–,–,–,> 100,–,> 100,> 100,–,74.6
CC(=O)NC(CCCNC(=O)N(CCCl)N=O)C(=O)NCc1ccccc1 (stereo not drawn),> 100,–,> 100,> 100,> 100,> 100,–,> 100,–,69.6,> 100,–,> 100,> 100,–,> 100
O=c1[nH]cc(COCCCO)c(=O)[nH]1,–,> 100,> 100,> 100,> 100,> 100,> 100,> 100,–,> 100,> 100,–,> 100,> 100,–,> 100
CCC(CCCN)Nc1cc(OC)cc2c(C)ccnc12 (stereo not drawn),44.9,26.4,31.6,–,33.7,28.6,31.6,27.7,28.5,33.4,32.9,29.3,36.3,39.5,–,42.2
c1ccc2c(c1)C1CCCCCC21N1CCOCC1 (stereo not drawn),> 100,> 100,> 100,> 100,> 100,> 100,> 100,> 100,–,> 100,> 100,–,–,> 100,–,> 100
